Results from US10898460B1, “Leishmania inhibitors” (University of South Florida, priority 2018, dated 2021).

Tested on: Leishmania donovani
Test: Bioassay against Leishmania donovani
Format: cell-based
Source text: Marine invertebrates from Antarctica have been investigated for their potential natural product chemistry. Often sessile, these organisms must develop chemical protective mechanisms to survive and defend themselves against predators. The biodiversity of these organisms is of particular interest due to the extremely low temperatures and the circumpolar current around the Antarctic continent serving as an ecological isolating shield. The chemodiversity that emanates from these organisms can be a significant source of chemistry to be further developed into new drugs. The chemical investigation of an undescribed Gersemia sp. Antarctic coral has led to the isolation of two different kinds of bioactive compounds. After lyophilization of the organism, two different extractions were performed: the first one used a methylene chloride: methanol (1:1) solvent mixture, and the second one used methylene chloride only as solvent in a Soxhlet extraction. […] One and two-dimensional nuclear magnetic resonance, mass spectrometry, X-ray crystallography, and circular dichroism were the methods performed to elucidate and confirm the structures. Furthermore, biological testing against Leishmania sp. and ESKAPE pathogens, Zika virus, Clostridium difficile, and HeLa cancer cells were performed.
Table 1 details the bioactivity of two Alcyopterosins and ACDL-21.

Cc1cc2c(c3c1[C@H](CO[N+](=O)[O-])OC3=O)CC(C)(C)C2 [Alcyopterosin E (2), alcyopterosin E]
IC50: 3.1 µM
